Assay results as given in paper PMC6057649, “Development of NanoLuc-PEST expressing Leishmania mexicana as a new drug discovery tool for axenic- and intramacrophage-based assays” (PLoS Neglected Tropical Diseases, 2018).

Test system: NanoLuc-PEST expressing L. mexicana axenic amastigotes
Assay: microbe, parasite or virus in culture
Type: cell-based
Settings: for Relative Bioluminescence (%): 72 hours, relative to DMSO only control, n = 4; for EC50: hit compounds from the axenic amastigote screen, S3 Table, read-out: EC50, Axenic Amastigotes

Compound | Relative Bioluminescence (%) (2 µM compound) | Relative Bioluminescence (%) (10 µM compound) | EC50 [nM]
O=C(Nc1c(O)cccc1-c1nc2c(C(=O)O)cccc2o1)c1cc(-c2ccccc2)on1 [MMV676008] | 79.00 | -1.15 | 
Clc1ccc(Cl)c(CO[C@H]2CCCC[C@@H]2n2ccnc2)c1 [MMV676048] | 104.27 | 53.90 | 
CS(=O)(=O)N1CCC(Cn2nc(Cc3cccc4ccccc34)c3c(N)ncnc32)CC1 [MMV676050] | 74.33 | 42.99 | 
COc1cc(NC(=O)Cc2nn(C)c(=O)c3ccccc23)ccc1Cl [MMV676053] | 106.26 | 78.76 | 
CC(C)(C)OC(=O)N1CCN(c2cc(-c3ccc(Oc4ccccc4)cc3)n[nH]2)CC1 [MMV676057] | 119.16 | 36.52 | 
CCCCc1ccc(NC(=O)Nc2ccc(O[C@H]3CCCC[C@@H]3N(C)c3ccccc3)c(F)c2)cc1 [MMV676063] | 99.42 | 66.65 | 
CC(=O)N(CCN(C(=O)c1ccc(F)cc1)c1ccccc1)c1ccccc1 [MMV676064] | 105.34 | 123.90 | 
Clc1cccc(CO[C@H]2CCc3ccccc3[C@@H]2n2ccnn2)c1 [MMV676159] | 101.47 | 98.27 | 
c1ccc(Oc2ccc(-c3cc(CN4CCOCC4)[nH]n3)cc2)cc1 [MMV676161] | 108.65 | 116.07 | 
O=C(Nc1ccccc1-c1nc2c(C(=O)O)cccc2o1)c1ccccc1 [MMV676162] | 7.36 | -0.97 | 960
Nc1ncnc2c1c(Cc1cccc3ccccc13)nn2CC1CCNCC1 [MMV676182] | 78.18 | 53.64 | 
COC(=O)c1cccc2oc(-c3cccc(OC)c3NC(=O)c3cc(-c4ccccc4)on3)nc12 [MMV676186] | 83.95 | 21.54 | 
CC(C)C(Oc1cccc2ccccc12)C(=O)O (stereo not drawn) [MMV676191] | 107.96 | 94.76 | 
O=C(c1ccc(F)cc1)N(CCNc1ccccc1)c1ccccc1 [MMV676204] | 116.49 | 99.37 | 
CN1CCN(c2nccc3nc(-c4ccc(F)c(F)c4)[nH]c23)CC1 [MMV676260] | 69.43 | 85.22 | 
C[C@H](C(N)=O)N1CCCC[C@H]1c1ccc(OCc2cccc(F)c2)cc1 [MMV676269] | 85.78 | 76.17 | 
C[C@H](C(N)=O)N1CCCC[C@@H]1c1ccc(OCc2cccc(F)c2)cc1 [MMV676270] | 41.26 | 18.00 | 
Cc1c[nH]c(CCNC(=O)c2cc(-c3ccc(Cl)cc3)cs2)n1 [MMV676350] | 84.72 | 104.94 | 
Nc1ncc(Br)cc1-c1nc2cc(Cl)cnc2[nH]1 [MMV676358] | 93.00 | 64.12 | 
Brc1c(-c2ccc3c(c2)OCO3)nc2ncccn12 [MMV676377] | 78.14 | 74.59 | 
COc1cccc(OCC(=O)c2ccc(Br)cc2)c1 [MMV676379] | 81.42 | 79.42 | 
CC(=O)Nc1ccc(NC(=O)c2cc(-c3cc(Cl)ccc3O)n[nH]2)cc1 [MMV676380] | 84.54 | 97.79 | 
Cn1ncc2c(N3CCOCC3)nc(NCCc3c[nH]c4ccccc34)nc21 [MMV676382] | 73.92 | 64.75 | 

Compound | Relative Bioluminescence (%) (2 µM compound) | Relative Bioluminescence (%) (10 µM compound) | EC50 [nM]
CCC(Sc1nc2ccccc2o1)C(=O)Nc1nccs1 (stereo not drawn) [MMV676383] | 136.33 | 127.92 | 
N#Cc1nc(-c2ccccc2F)oc1NCCc1ccccc1 [MMV676384] | 51.03 | 59.90 | 
Cc1cccc(Cn2ccc(NC(=O)c3ccc4c(c3)OCO4)n2)c1 [MMV676386] | 127.03 | 120.21 | 
COc1cccc(-n2nnnc2S(=O)(=O)Cc2ccccc2)c1 [MMV676388] | 0.56 | 0.16 | 730
O=C(c1n[nH]c2c1CCCC2)N1CCN(Cc2ccc3c(c2)OCO3)CC1 [MMV676389] | 67.21 | 71.87 | 
O=C(Nc1cccnc1)c1c(O)c2cccc3c2n(c1=O)CC3 [MMV676395] | 63.89 | 0.76 | 
CCS(=O)(=O)N(Cc1ccco1)Cc1cc2ccc(C)cc2[nH]c1=O [MMV676398] | 115.47 | 84.49 | 
c1coc(CNc2nc(N3CCCCC3)nc3ccccc23)c1 [MMV676401] | 91.23 | 75.18 | 
CC(C)n1ncc2c(C(=O)NCC(c3cccs3)N3CCOCC3)cc(-c3ccccc3)nc21 (stereo not drawn) [MMV676406] | 54.35 | 35.79 | 
O=C(COc1cccc(F)c1)Nc1nc(-c2ccccn2)cs1 [MMV676409] | 37.25 | 12.84 | 
CC(Oc1ccccc1)C(=O)Nc1nc(-c2ccccn2)cs1 (stereo not drawn) [MMV676411] | 48.75 | -0.81 | 
N#Cc1nc(-c2ccccc2)oc1S(=O)(=O)c1ccc(Cl)cc1 [MMV676412] | 0.46 | -0.09 | 260
Cc1ccc(NC(=O)CC2COc3ccccc3O2)cc1Cl (stereo not drawn) [MMV676431] | 104.86 | 65.31 | 
Cc1ccc2nc(Cl)c(CNCc3cccs3)cc2c1 [MMV676439] | 83.45 | 95.86 | 
CC(C)c1ncc(-c2ccncc2)c(C2CCC(CNC(=O)c3cccnc3)CC2)n1 (stereo not drawn) [MMV676442] | 118.75 | 113.29 | 
O=C(NC1CCCCC1)N1CCN(Cc2ccc3c(c2)OCO3)CC1 [MMV676444] | 89.21 | 81.76 | 
CCCn1c(CNc2ccccc2O)nc2ccccc21 [MMV676445] | 79.21 | 77.96 | 
CCc1nc2ccccc2n1CC(O)COc1cc(C)ccc1Cl (stereo not drawn) [MMV676449] | 92.26 | 88.05 | 
CCOC(=O)c1cc(-c2csc(Nc3c(C)cc(C)cc3C)n2)on1 [MMV676461] | 79.84 | 54.88 | 
NC(CC(=O)c1ccc(Cl)cc1Cl)C(Cl)(Cl)Cl (stereo not drawn) [MMV676468] | 106.85 | 84.33 | 
CCOc1ccc(OCC(=O)Nc2cc(C)cc(C)c2)cc1 [MMV676470] | 87.35 | 79.72 | 
COc1cccc(OC)c1C(=O)Nc1ccc(Cl)c(-c2nc3ccccc3s2)c1 [MMV676472] | 106.46 | 93.04 | 
